system: Veronica persica; test: Pre-emergence herbicidal effect against VERPE; type: in vivo; settings: 1280 g/ha, visual score after 3 weeks, 100% = plants have died, 0% = like control plants
Excerpt: (§1) 1. Pre-emergence herbicidal effect and crop plant compatibility Seeds of monocotyledonous and dicotyledonous weed plants and crop plants are laid out in sandy loam soil in wood-fibre pots and covered with soil. The compounds of the invention, formulated in the form of wettable powders (WP) or as emulsion concentrates (EC), are then applied to the surface of the covering soil as aqueous suspension or emulsion at a water application rate equating to 600 to 800 L/ha with addition of 0.2% wetting agent. After the treatment, the pots are placed in a greenhouse and kept under good growth conditions for the trial plants. The damage to the test plants is scored visually after a test period of 3 weeks by comparison with untreated controls (herbicidal activity in percent (%): 100% activity=the plants have died, 0% activity=like control plants). [table]

Structure (SMILES) | Pre-emergence action against VERPE
O=C(O)CSc1nn(-c2ccccc2)c(-c2cncnc2)c1Br [III-002] | 100%
COC(=O)CNC(=O)CSc1nn(-c2ccccc2F)c(-c2ccc(F)c(F)c2)c1Cl [VII-001] | 100%
COC(=O)CNC(=O)CSc1nn(-c2ccccc2F)c(-c2ccccc2)c1Br [VII-005] | 100%

system: Poa annua; test: Pre-emergence herbicidal effect against POAAN; type: in vivo; settings: 1280 g/ha, visual score after 3 weeks, 100% = plants have died, 0% = like control plants
Excerpt: as §1

Structure (SMILES) | Pre-emergence action against POAAN
O=C(O)CSc1nn(-c2ccccc2)c(-c2cncnc2)c1Br [III-002] | 100%
COC(=O)CNC(=O)CSc1nn(-c2ccccc2F)c(-c2ccc(F)c(F)c2)c1Cl [VII-001] | 100%
COC(=O)CNC(=O)CSc1nn(-c2ccccc2F)c(-c2ccccc2)c1Br [VII-005] | 100%

system: Veronica persica; test: Post-emergence herbicidal effect against VERPE; type: in vivo; settings: 1280 g/ha, visual assessment about 3 weeks after treatment, 100% = plants have died, 0% = like control plants
Protocol: (§2) [table] 2. Post-emergence herbicidal effect and crop plant compatibility Seeds of monocotyledonous and dicotyledonous weed and crop plants are laid out in sandy loam soil in wood-fibre pots, covered with soil and cultivated in a greenhouse under good growth conditions. 2 to 3 weeks after sowing, the test plants are treated at the one-leaf stage. The compounds of the invention, formulated in the form of wettable powders (WP) or as emulsion concentrates (EC), are then sprayed onto the green parts of the plants as aqueous suspension or emulsion at a water application rate equating to 600 to 800 l/ha with addition of 0.2% wetting agent. After the test plants have been left to stand in the greenhouse under optimal growth conditions for about 3 weeks, the action of the preparations is assessed visually in comparison to untreated controls (herbicidal action in percent (%): 100% activity=the plants have died, 0% activity=like control plants).

Structure (SMILES) | Post-emergence action against VERPE
O=C(O)CSc1nn(-c2ccccc2)c(-c2cncnc2)c1Br [III-002] | 100%
COC(=O)CNC(=O)CSc1nn(-c2ccccc2F)c(-c2ccc(F)c(F)c2)c1Cl [VII-001] | 90%
COC(=O)CNC(=O)CSc1nn(-c2ccccc2F)c(-c2ccccc2)c1Br [VII-005] | 100%

system: Lolium rigidum; test: Pre-emergence herbicidal effect against LOLRI; type: in vivo; settings: 1280 g/ha, visual score after 3 weeks, 100% = plants have died, 0% = like control plants
Excerpt: as §1

Structure (SMILES) | Pre-emergence action against LOLRI
COC(=O)CNC(=O)CSc1nn(-c2ccccc2F)c(-c2ccc(F)c(F)c2)c1Cl [VII-001] | 100%
COC(=O)CNC(=O)CSc1nn(-c2ccccc2F)c(-c2ccccc2)c1Br [VII-005] | 90%

system: Amaranthus retroflexus; test: Pre-emergence herbicidal effect against AMARE; type: in vivo; settings: 1280 g/ha, visual score after 3 weeks, 100% = plants have died, 0% = like control plants
Excerpt: as §1

Structure (SMILES) | Pre-emergence action against AMARE
O=C(O)CSc1nn(-c2ccccc2)c(-c2cncnc2)c1Br [III-002] | 100%

system: Digitaria sanguinalis; test: Post-emergence herbicidal effect against DIGSA; type: in vivo; settings: 1280 g/ha, visual score after about 3 weeks, 100% = plants have died, 0% = like control plants
Protocol: as §2

Structure (SMILES) | Post-emergence action against DIGSA
COC(=O)CNC(=O)CSc1nn(-c2ccccc2F)c(-c2ccc(F)c(F)c2)c1Cl [VII-001] | 100%

system: Abutylon threophrasti; test: Post-emergence herbicidal effect against ABUTH; type: in vivo; settings: 1280 g/ha, visual assessment about 3 weeks after treatment, 100% = plants have died, 0% = like control plants
Protocol: as §2

Structure (SMILES) | Post-emergence action against ABUTH
COC(=O)CNC(=O)CSc1nn(-c2ccccc2F)c(-c2ccc(F)c(F)c2)c1Cl [VII-001] | 90%
COC(=O)CNC(=O)CSc1nn(-c2ccccc2F)c(-c2ccccc2)c1Br [VII-005] | 100%

system: Digitaria sanguinalis; test: Pre-emergence herbicidal effect against DIGSA; type: in vivo; settings: 1280 g/ha, visual score after 3 weeks, 100% = plants have died, 0% = like control plants
Excerpt: as §1

Structure (SMILES) | Pre-emergence action against DIGSA
O=C(O)CSc1nn(-c2ccccc2)c(-c2cncnc2)c1Br [III-002] | 100%
COC(=O)CNC(=O)CSc1nn(-c2ccccc2F)c(-c2ccc(F)c(F)c2)c1Cl [VII-001] | 100%

system: Echinochloa crus-galli; test: Pre-emergence herbicidal effect against ECHCG; type: in vivo; settings: 1280 g/ha, visual score after 3 weeks, 100% = plants have died, 0% = like control plants
Excerpt: as §1

Structure (SMILES) | Pre-emergence action against ECHCG
O=C(O)CSc1nn(-c2ccccc2)c(-c2cncnc2)c1Br [III-002] | 100%
COC(=O)CNC(=O)CSc1nn(-c2ccccc2F)c(-c2ccccc2)c1Br [VII-005] | 90%

system: Setaria viridis; test: Post-emergence herbicidal effect against SETVI; type: in vivo; settings: 1280 g/ha, visual assessment about 3 weeks after treatment, 100% = plants have died, 0% = like control plants
Protocol: as §2

Structure (SMILES) | Post-emergence action against SETVI
COC(=O)CNC(=O)CSc1nn(-c2ccccc2F)c(-c2ccc(F)c(F)c2)c1Cl [VII-001] | 90%
COC(=O)CNC(=O)CSc1nn(-c2ccccc2F)c(-c2ccccc2)c1Br [VII-005] | 100%

system: Alopecurus myosuroides; test: Post-emergence herbicidal effect against ALOMY; type: in vivo; settings: 1280 g/ha, visual score after about 3 weeks, 100% = plants have died, 0% = like control plants
Protocol: as §2

Structure (SMILES) | Post-emergence action against ALOMY
COC(=O)CNC(=O)CSc1nn(-c2ccccc2F)c(-c2ccc(F)c(F)c2)c1Cl [VII-001] | 100%
COC(=O)CNC(=O)CSc1nn(-c2ccccc2F)c(-c2ccccc2)c1Br [VII-005] | 100%

system: Poa annua; test: Post-emergence herbicidal effect against POAAN; type: in vivo; settings: 1280 g/ha, visual assessment about 3 weeks after treatment, 100% = plants have died, 0% = like control plants
Protocol: as §2

Structure (SMILES) | Post-emergence action against POAAN
O=C(O)CSc1nn(-c2ccccc2)c(-c2cncnc2)c1Br [III-002] | 100%
COC(=O)CNC(=O)CSc1nn(-c2ccccc2F)c(-c2ccc(F)c(F)c2)c1Cl [VII-001] | 100%
COC(=O)CNC(=O)CSc1nn(-c2ccccc2F)c(-c2ccccc2)c1Br [VII-005] | 100%

system: Tripleurospermum inodorum; test: Pre-emergence herbicidal effect against MATIN; type: in vivo; settings: 1280 g/ha, visual score after 3 weeks, 100% = plants have died, 0% = like control plants
Excerpt: as §1

Structure (SMILES) | Pre-emergence action against MATIN
O=C(O)CSc1nn(-c2ccccc2)c(-c2cncnc2)c1Br [III-002] | 100%
COC(=O)CNC(=O)CSc1nn(-c2ccccc2F)c(-c2ccc(F)c(F)c2)c1Cl [VII-001] | 100%
COC(=O)CNC(=O)CSc1nn(-c2ccccc2F)c(-c2ccccc2)c1Br [VII-005] | 100%

system: Stellaria media; test: Pre-emergence herbicidal effect against STEME; type: in vivo; settings: 1280 g/ha, visual score after 3 weeks, 100% = plants have died, 0% = like control plants
Excerpt: as §1

Structure (SMILES) | Pre-emergence action against STEME
O=C(O)CSc1nn(-c2ccccc2)c(-c2cncnc2)c1Br [III-002] | 100%
COC(=O)CNC(=O)CSc1nn(-c2ccccc2F)c(-c2ccc(F)c(F)c2)c1Cl [VII-001] | 100%
COC(=O)CNC(=O)CSc1nn(-c2ccccc2F)c(-c2ccccc2)c1Br [VII-005] | 100%

system: Tripleurospermum inodorum; test: Post-emergence herbicidal effect against MATIN; type: in vivo; settings: 1280 g/ha, visual assessment about 3 weeks after treatment, 100% = plants have died, 0% = like control plants
Protocol: as §2

Structure (SMILES) | Post-emergence action against MATIN
O=C(O)CSc1nn(-c2ccccc2)c(-c2cncnc2)c1Br [III-002] | 90%
COC(=O)CNC(=O)CSc1nn(-c2ccccc2F)c(-c2ccc(F)c(F)c2)c1Cl [VII-001] | 90%
COC(=O)CNC(=O)CSc1nn(-c2ccccc2F)c(-c2ccccc2)c1Br [VII-005] | 100%

system: Bassia scoparia; test: Post-emergence herbicidal effect against KCHSC; type: in vivo; settings: 1280 g/ha, visual assessment about 3 weeks after treatment, 100% = plants have died, 0% = like control plants
Protocol: as §2

Structure (SMILES) | Post-emergence action against KCHSC
COC(=O)CNC(=O)CSc1nn(-c2ccccc2F)c(-c2ccc(F)c(F)c2)c1Cl [VII-001] | 90%
COC(=O)CNC(=O)CSc1nn(-c2ccccc2F)c(-c2ccccc2)c1Br [VII-005] | 100%

system: Setaria viridis; test: Pre-emergence herbicidal effect against SETVI; type: in vivo; settings: 1280 g/ha, visual score after 3 weeks, 100% = plants have died, 0% = like control plants
Excerpt: as §1

Structure (SMILES) | Pre-emergence action against SETVI
O=C(O)CSc1nn(-c2ccccc2)c(-c2cncnc2)c1Br [III-002] | 100%
COC(=O)CNC(=O)CSc1nn(-c2ccccc2F)c(-c2ccc(F)c(F)c2)c1Cl [VII-001] | 100%
COC(=O)CNC(=O)CSc1nn(-c2ccccc2F)c(-c2ccccc2)c1Br [VII-005] | 90%

system: Stellaria media; test: Post-emergence herbicidal effect against STEME; type: in vivo; settings: 1280 g/ha, visual assessment about 3 weeks after treatment, 100% = plants have died, 0% = like control plants
Protocol: as §2

Structure (SMILES) | Post-emergence action against STEME
O=C(O)CSc1nn(-c2ccccc2)c(-c2cncnc2)c1Br [III-002] | 90%
COC(=O)CNC(=O)CSc1nn(-c2ccccc2F)c(-c2ccc(F)c(F)c2)c1Cl [VII-001] | 90%
COC(=O)CNC(=O)CSc1nn(-c2ccccc2F)c(-c2ccccc2)c1Br [VII-005] | 90%

system: Echinochloa crus-galli; test: Post-emergence herbicidal effect against ECHCG; type: in vivo; settings: 1280 g/ha, visual score after about 3 weeks, 100% = plants have died, 0% = like control plants
Protocol: as §2

Structure (SMILES) | Post-emergence action against ECHCG
COC(=O)CNC(=O)CSc1nn(-c2ccccc2F)c(-c2ccc(F)c(F)c2)c1Cl [VII-001] | 100%
COC(=O)CNC(=O)CSc1nn(-c2ccccc2F)c(-c2ccccc2)c1Br [VII-005] | 90%

system: Alopecurus myosuroides; test: Pre-emergence herbicidal effect against ALOMY; type: in vivo; settings: 1280 g/ha, visual score after 3 weeks, 100% = plants have died, 0% = like control plants
Excerpt: as §1

Structure (SMILES) | Pre-emergence action against ALOMY
COC(=O)CNC(=O)CSc1nn(-c2ccccc2F)c(-c2ccc(F)c(F)c2)c1Cl [VII-001] | 90%
COC(=O)CNC(=O)CSc1nn(-c2ccccc2F)c(-c2ccccc2)c1Br [VII-005] | 90%
